Source: patent publication US11427548B2 (Arvinas Operations, Inc., priority 2015, dated 2022)
Read-outs that look alike come from different tables or passages of the source.

Target: T1, Androgen Receptor (Homo sapiens, UniProt P10275)
T1 construct: endogenous in cells; host or cells: VCaP cells
T1 sequence (P10275 1-920): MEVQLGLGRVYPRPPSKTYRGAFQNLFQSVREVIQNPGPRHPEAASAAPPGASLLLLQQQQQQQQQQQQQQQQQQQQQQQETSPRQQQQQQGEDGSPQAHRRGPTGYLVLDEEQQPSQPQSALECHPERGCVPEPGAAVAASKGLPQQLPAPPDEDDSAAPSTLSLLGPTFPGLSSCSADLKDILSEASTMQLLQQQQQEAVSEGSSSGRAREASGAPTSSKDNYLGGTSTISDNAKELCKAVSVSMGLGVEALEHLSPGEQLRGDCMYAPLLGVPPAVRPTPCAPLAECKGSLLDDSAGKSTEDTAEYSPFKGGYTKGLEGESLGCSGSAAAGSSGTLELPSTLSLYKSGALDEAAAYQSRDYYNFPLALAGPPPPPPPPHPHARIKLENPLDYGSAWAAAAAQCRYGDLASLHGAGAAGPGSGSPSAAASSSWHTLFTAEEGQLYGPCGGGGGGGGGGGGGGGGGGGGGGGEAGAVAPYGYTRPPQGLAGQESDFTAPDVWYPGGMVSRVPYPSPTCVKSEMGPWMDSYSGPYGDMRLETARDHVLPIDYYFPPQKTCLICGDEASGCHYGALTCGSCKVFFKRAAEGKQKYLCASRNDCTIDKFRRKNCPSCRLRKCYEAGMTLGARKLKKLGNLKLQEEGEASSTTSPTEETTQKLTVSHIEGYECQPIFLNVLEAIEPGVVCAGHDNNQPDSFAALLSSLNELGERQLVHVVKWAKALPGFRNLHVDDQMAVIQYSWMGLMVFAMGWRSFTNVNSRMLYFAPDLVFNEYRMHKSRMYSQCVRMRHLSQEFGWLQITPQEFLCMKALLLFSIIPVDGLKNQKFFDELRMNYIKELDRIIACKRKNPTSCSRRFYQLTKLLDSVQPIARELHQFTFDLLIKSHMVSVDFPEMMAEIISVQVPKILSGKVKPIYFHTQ
Assay: Androgen Receptor ELISA assay (PathScan AR ELISA) in VCaP cells: AR degradation, Dmax and DC50
Assay type: cell-based
Outline: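 VCaP cells in phenol red-free RPMI with 5% charcoal-stripped FBS were grown at least 3 days, then given compound as 7 half-log doses in 0.1% DMSO with 0.1 nM R1881 for 24 h. Lysates went into a sandwich AR ELISA with TMB read at 450 nm.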

[1] = VCaP cells; Table 36; read-out: VCaP DC50
[2] = VCaP, VCaP cells; Table 36; read-out: VCaP Dmax (%)

Compound | DC50 [1] | Dmax [2] | Dmax (VCaP, read-out: VCaP Dmax (%)) | DC50 (read-out: VCaP DC50; VCaP cells; Table 36)
Cc1ncsc1-c1ccc([C@H](C)NC(=O)[C@@H]2C[C@@H](O)CN2C(=O)C(C(C)C)n2cnc(CCCCOCCCCCOc3ccc(N4C(=S)N(c5ccc(C#N)c(C(F)(F)F)c5)C(=O)C4(C)C)cc3)c2)cc1 (stereo partly shown) [Example 650, 1-(2-(4-(4-((5-(4-(3-(4-cyano-3-(trifluoromethyl)phenyl)-5,5-dimethyl-4-oxo-2-thioxoimidazolidin-1-yl)phenoxy)pentyl)oxy)butyl)-1H-imidazol-1-yl)-3-methylbutanoyl)-4-hydroxy-N-(1-(4-(4-methylthiazol-5-yl)phenyl)ethyl)pyrroli-dine-2-carboxamide] |  |  | < 25% | > 501 nM
Cc1ncsc1-c1ccc([C@H](C)NC(=O)[C@@H]2C[C@@H](OC(=O)OC(C)C)CN2C(=O)[C@@H](NC(=O)COCCCCCNc2ccc(C(=O)N[C@H]3C(C)(C)[C@H](Oc4ccc(C#N)c(Cl)c4)C3(C)C)cc2)C(C)(C)C)cc1 [Example 652, (3R,5S)-1-((S)-2-(2-((5-((4-(((1r,3r)-3-(3-chloro-4-cyanophenoxy)-2,2,4,4-tetramethylcyclobutyl)carbamoyl)phenyl)amino)pentyl)oxy)acetamido)-3,3-dimethylbutanoyl)-5-(((S)-1-(4-(4-methylthiazol-5-yl)phenyl)ethyl)carbam-oyl)pyrrolidin-3-yl isopropyl carbonate] | > 501 nM | < 25% |  | 
Cc1ncsc1-c1ccc([C@H](C)NC(=O)[C@@H]2C[C@@H](O)CN2C(=O)[C@@H](NC(=O)COCCN2CCN(c3ccc(C(=O)N[C@H]4C(C)(C)[C@H](Oc5ccc(C#N)c(Cl)c5)C4(C)C)nc3)CC2)C(C)(C)C)cc1 [Example 654, N-((1r,3r)-3-(3-chloro-4-cyanophenoxy)-2,2,4,4-tetramethylcyclobutyl)-5-(4-(2-(2-(((S)-1-((2S,4R)-4-hydroxy-2-(((S)-1-(4-(4-methylthiazol-5-yl)phenyl)ethyl)carbam-oyl)pyrrolidin-1-yl)-3,3-dimethyl-1-oxobutan-2-yl)amino)-2-oxoethoxy)ethyl)pipera-zin-1-yl)picolinamide] | < 50 nM | > 71% |  | 

Further lines, with some results ahead:

DC50 [1] | Dmax [2] | Compound | Dmax (VCaP, read-out: VCaP Dmax (%)) | DC50 (read-out: VCaP DC50; VCaP cells; Table 36)
< 50 nM | > 71% | CC[C@H](NC(=O)[C@@H]1C[C@@H](O)CN1C(=O)[C@@H](NC(=O)COCCN1CCN(c2ccc(C(=O)N[C@H]3C(C)(C)[C@H](Oc4ccc(C#N)c(Cl)c4)C3(C)C)cn2)CC1)C(C)(C)C)c1ccc(-c2scnc2C)cc1 [Example 649, N-((1r,3r)-3-(3-chloro-4-cyanophenoxy)-2,2,4,4-tetramethylcyclobutyl)-6-(4-(2-(2-(((S)-1-((2S,4R)-4-hydroxy-2-(((S)-1-(4-(4-methylthiazol-5-yl)phenyl)propyl)carbam-moyl)pyrrolidin-1-yl)-3,3-dimethyl-1-oxobutan-2-yl)amino)-2-oxoethoxy)ethyl)pipera-zin-1-yl)nicotinamide] |  | 
< 50 nM | 51 to 70% | Cc1ncsc1-c1ccc(C(C)NC(=O)[C@@H]2C[C@@H](OCOC(=O)OC(C)C)CN2C(=O)[C@@H](NC(=O)COCCCCCNc2ccc(C(=O)N[C@H]3C(C)(C)[C@H](Oc4ccc(C#N)c(Cl)c4)C3(C)C)cc2)C(C)(C)C)cc1 (stereo partly drawn) [Example 653, (((3R,5S)-1-((S)-2-(2-((5-((4-(((1r,3r)-3-(3-chloro-4-cyanophenoxy)-2,2,4,4-tetramethylcyclobutyl)carbamoyl)phenyl)amino)pentyl)oxy)acetamido)-3,3-dimethylbutanoyl)-5-(((S)-1-(4-(4-methylthiazol-5-yl)phenyl)ethyl)carbam-oyl)pyrrolidin-3-yl)oxy)methyl isopropyl carbonate] |  | 
